Measurements reported in ChEMBL document CHEMBL4393664, “2,4-Disubstituted quinazolines targeting breast cancer cells via EGFR-PI3K” (Eur J Med Chem, 2019).

Experiments:
Format in all cases: functional, cell-based
HGC-27 = assay: Cytotoxicity against human HGC27 cells assessed as reduction in cell viability after 72 hrs by MTT assay; details: HGC-27, 72 h
MGC-803 = assay: Cytotoxicity against human MGC803 cells assessed as reduction in cell viability after 72 hrs by MTT assay; details: MGC-803, 72 h
MDA-MB-231 = assay: Cytotoxicity against human MDA-MB-231 cells assessed as reduction in cell viability after 72 hrs by MTT assay; details: MDA-MB-231, 72 h
PC-3 = assay: Cytotoxicity against human PC3 cells assessed as reduction in cell viability after 72 hrs by MTT assay; details: PC-3, 72 h
MCF7 = assay: Cytotoxicity against human MCF7 cells assessed as reduction in cell viability after 72 hrs by MTT assay; details: MCF7, 72 h

Row | SMILES | IC50 (HGC-27) | IC50 (MGC-803) | IC50 (MDA-MB-231) | IC50 (PC-3) | IC50 (MCF7)
1 | FC(F)(F)c1ccc(CSc2nc(Nc3cccc(Cl)c3)c3ccccc3n2)cc1 | 19.9 µM | 14.6 µM | 18 µM | 13.4 µM | 25.1 µM
2 | Cc1ccccc1Nc1nc(SCc2ccc(C(F)(F)F)cc2)nc2ccccc12 | 27.5 µM | 24.4 µM | 27.1 µM | 36.9 µM | 37.5 µM
3 | FC(F)(F)c1ccc(CSc2nc(N3CCCCC3)c3ccccc3n2)cc1 | > 50 µM | 18.6 µM | 28.4 µM | 25.5 µM | > 50 µM
4 | CCCCCCCCCCCCNc1nc(SCc2ccc(C(F)(F)F)cc2)nc2ccccc12 | 38.7 µM | > 50 µM | > 50 µM | 26 µM | > 50 µM
5 | Cc1ccc(Nc2nc(SCc3ccc(C(F)(F)F)cc3)nc3ccccc23)cc1 | 34.6 µM | 36.1 µM | > 50 µM | 21.1 µM | > 50 µM
6 | COc1ccc(Nc2nc(SCc3ccc(C(F)(F)F)cc3)nc3ccccc23)cc1OC | 17.9 µM | 16.3 µM | 18.9 µM | 14.1 µM | > 50 µM
7 | CCOc1ccccc1Nc1nc(SCc2ccc(C(F)(F)F)cc2)nc2ccccc12 | > 50 µM | > 50 µM | > 50 µM | 26.2 µM | > 50 µM
8 | FC(F)(F)c1ccc(CSc2nc(Nc3ccccc3C(F)(F)F)c3ccccc3n2)cc1 | > 50 µM | > 50 µM | > 50 µM | 34.8 µM | > 50 µM
9 | CCOc1ccc(Nc2nc(SCc3ccc(C(F)(F)F)cc3)nc3ccccc23)cc1 | 33 µM | 37 µM | 23 µM | 32 µM | > 50 µM
10 | FC(F)(F)c1ccc(CSc2nc(Nc3ccccc3Cl)c3ccccc3n2)cc1 | > 50 µM | > 50 µM | > 50 µM | 20.4 µM | > 50 µM
11 | FC(F)(F)c1ccc(CSc2nc(Nc3ccccc3)c3ccccc3n2)cc1 | 26.4 µM | 22.2 µM | 18.4 µM | 20 µM | 44 µM
12 | O=[N+]([O-])c1ccc(Nc2nc(SCc3ccc(C(F)(F)F)cc3)nc3ccccc23)cc1 | 16.6 µM | 8.17 µM | 8.67 µM | 7.9 µM | 17.9 µM
13 | COc1ccc(Nc2nc(SCc3ccc(C(F)(F)F)cc3)nc3ccccc23)c(OC)c1 | > 50 µM | > 50 µM | > 50 µM | 32.5 µM | > 50 µM
14 | CCCCCCNc1nc(SCc2ccc(C(F)(F)F)cc2)nc2ccccc12 | 23.9 µM | 13.1 µM | 20.2 µM | 19 µM | 24.3 µM
15 | CCCCCCCCCCCCCCNc1nc(SCc2ccc(C(F)(F)F)cc2)nc2ccccc12 | > 50 µM | > 50 µM | > 50 µM | > 50 µM | > 50 µM
16 | Fc1ccc(Nc2nc(SCc3ccc(C(F)(F)F)cc3)nc3ccccc23)cc1Cl | 14.7 µM | > 50 µM | 14.5 µM | 18.6 µM | 23 µM
17 | COc1cc(Nc2nc(SCc3ccc(C(F)(F)F)cc3)nc3ccccc23)cc(OC)c1 | > 50 µM | 8.58 µM | 16.1 µM | > 50 µM | 6.99 µM
18 | FC(F)(F)c1ccc(CSc2nc(Nc3cccc(Br)c3)c3ccccc3n2)cc1 | 18.3 µM | 23.7 µM | 22.1 µM | 8.68 µM | 25.6 µM
19 | FC(F)(F)c1ccc(CSc2nc(Nc3ccc(Cl)cc3)c3ccccc3n2)cc1 | 14.1 µM | 16.8 µM | 15.1 µM | 7.11 µM | 21.5 µM
20 | CCCCCCCCNc1nc(SCc2ccc(C(F)(F)F)cc2)nc2ccccc12 | 13.4 µM | 12.6 µM | 22.3 µM | 10.5 µM | 26.1 µM
21 | O=[N+]([O-])c1cccc(Nc2nc(SCc3ccc(C(F)(F)F)cc3)nc3ccccc23)c1 | > 50 µM | > 50 µM | 31.5 µM | 13.5 µM | > 50 µM
22 | COc1ccccc1Nc1nc(SCc2ccc(C(F)(F)F)cc2)nc2ccccc12 | > 50 µM | > 50 µM | > 50 µM | 14.1 µM | > 50 µM
23 | COc1cc(Nc2nc(SCc3ccc(C(F)(F)F)cc3)nc3ccccc23)cc(OC)c1OC | 14 µM | 8.24 µM | > 50 µM | 7.37 µM | > 50 µM
24 | COc1ccc(Nc2nc(SCc3ccc(C(F)(F)F)cc3)nc3ccccc23)cc1 | 23.5 µM | 13.8 µM | 15.7 µM | 16.7 µM | 47.2 µM
25 | FC(F)(F)c1ccc(CSc2nc(Nc3cccc(C(F)(F)F)c3)c3ccccc3n2)cc1 | 11.7 µM | 15.1 µM | 11.1 µM | 12.9 µM | 15.3 µM
26 | Fc1ccc(Nc2nc(SCc3ccc(C(F)(F)F)cc3)nc3ccccc23)cc1 | 19.5 µM | 9.62 µM | 15 µM | 7.07 µM | 36.3 µM
